What was measured:
Conditions in all cases: Compound concentration 1000.0 nM
[1] = biological target: Ribosomal protein S6 kinase alpha-3 (Homo sapiens, UniProt P51812)
[2] = biological target: Casein kinase II subunit alpha (Homo sapiens) (UniProt P68400)
[3] = biological target: T1, Serine/threonine-protein kinase NLK (Homo sapiens) (UniProt Q9UBE8)
T1 sequence (whole entry): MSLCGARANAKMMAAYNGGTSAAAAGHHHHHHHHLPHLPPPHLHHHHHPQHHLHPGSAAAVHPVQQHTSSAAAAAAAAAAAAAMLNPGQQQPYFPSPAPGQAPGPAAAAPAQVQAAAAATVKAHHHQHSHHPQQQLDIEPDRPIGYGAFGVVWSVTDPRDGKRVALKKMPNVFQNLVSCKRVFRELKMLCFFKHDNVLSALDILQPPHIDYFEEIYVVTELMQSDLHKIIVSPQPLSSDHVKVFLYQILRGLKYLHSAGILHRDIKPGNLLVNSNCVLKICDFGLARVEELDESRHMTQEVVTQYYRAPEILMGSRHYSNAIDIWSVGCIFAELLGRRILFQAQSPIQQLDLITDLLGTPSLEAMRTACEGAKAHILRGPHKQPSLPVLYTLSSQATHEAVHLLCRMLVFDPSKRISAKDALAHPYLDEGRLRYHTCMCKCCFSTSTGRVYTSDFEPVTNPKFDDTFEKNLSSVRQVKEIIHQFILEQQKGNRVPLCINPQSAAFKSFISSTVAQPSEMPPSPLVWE

[4] = biological target: Serine/threonine-protein kinase WNK2 (Homo sapiens) (UniProt Q9Y3S1)
[5] = biological target: Cyclin-dependent kinase 2 homolog (Plasmodium falciparum (isolate 3D7)) (UniProt P61075)
Sequence of Cyclin-dependent kinase 2 homolog (Plasmodium falciparum (isolate 3D7)) (P61075 whole entry): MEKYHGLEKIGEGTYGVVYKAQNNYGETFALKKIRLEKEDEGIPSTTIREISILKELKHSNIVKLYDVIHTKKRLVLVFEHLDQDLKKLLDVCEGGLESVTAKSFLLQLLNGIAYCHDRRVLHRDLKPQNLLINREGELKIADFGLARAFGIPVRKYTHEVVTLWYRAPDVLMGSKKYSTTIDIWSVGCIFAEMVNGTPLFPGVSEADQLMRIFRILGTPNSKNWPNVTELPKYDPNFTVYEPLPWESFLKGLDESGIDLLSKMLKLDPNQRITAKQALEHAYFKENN

[6] = biological target: STE20-like serine/threonine-protein kinase (Homo sapiens) (UniProt Q9H2G2)
Sequence of STE20-like serine/threonine-protein kinase (Homo sapiens) (Q9H2G2 whole entry, looked up): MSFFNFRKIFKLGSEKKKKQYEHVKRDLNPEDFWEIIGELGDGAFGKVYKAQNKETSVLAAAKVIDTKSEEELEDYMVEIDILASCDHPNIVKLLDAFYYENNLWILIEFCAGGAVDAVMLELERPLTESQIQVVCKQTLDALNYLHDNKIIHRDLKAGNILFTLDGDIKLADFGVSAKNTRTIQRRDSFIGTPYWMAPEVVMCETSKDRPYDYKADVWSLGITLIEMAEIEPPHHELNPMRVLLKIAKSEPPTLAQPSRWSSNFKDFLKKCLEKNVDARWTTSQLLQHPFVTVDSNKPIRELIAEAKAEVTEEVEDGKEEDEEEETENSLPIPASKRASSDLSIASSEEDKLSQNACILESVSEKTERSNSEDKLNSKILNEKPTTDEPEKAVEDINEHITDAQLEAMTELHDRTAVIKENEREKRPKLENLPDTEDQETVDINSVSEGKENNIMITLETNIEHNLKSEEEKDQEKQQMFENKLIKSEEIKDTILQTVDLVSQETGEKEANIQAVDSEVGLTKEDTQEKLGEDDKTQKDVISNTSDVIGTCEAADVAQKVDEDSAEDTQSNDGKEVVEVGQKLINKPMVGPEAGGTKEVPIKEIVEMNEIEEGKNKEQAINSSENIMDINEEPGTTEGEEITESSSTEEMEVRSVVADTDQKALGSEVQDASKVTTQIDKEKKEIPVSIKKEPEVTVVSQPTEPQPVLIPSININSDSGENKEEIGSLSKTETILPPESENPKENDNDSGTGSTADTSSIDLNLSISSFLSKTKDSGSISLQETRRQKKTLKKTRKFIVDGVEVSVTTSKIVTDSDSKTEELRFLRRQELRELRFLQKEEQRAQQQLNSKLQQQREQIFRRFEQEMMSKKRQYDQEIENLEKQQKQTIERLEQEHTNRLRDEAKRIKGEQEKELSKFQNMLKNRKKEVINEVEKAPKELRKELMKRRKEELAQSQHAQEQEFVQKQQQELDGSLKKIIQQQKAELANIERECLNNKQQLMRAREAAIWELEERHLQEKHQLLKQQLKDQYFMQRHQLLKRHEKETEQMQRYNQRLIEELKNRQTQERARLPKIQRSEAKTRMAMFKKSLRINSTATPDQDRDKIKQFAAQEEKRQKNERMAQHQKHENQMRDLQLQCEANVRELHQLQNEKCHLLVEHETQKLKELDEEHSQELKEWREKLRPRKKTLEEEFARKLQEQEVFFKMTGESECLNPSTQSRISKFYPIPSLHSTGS

[7] = biological target: Mitogen-activated protein kinase 14 (Homo sapiens) (UniProt Q16539)
[8] = biological target: T2, Ephrin type-A receptor 3 (Homo sapiens) (UniProt P29320)
T2 sequence (whole entry): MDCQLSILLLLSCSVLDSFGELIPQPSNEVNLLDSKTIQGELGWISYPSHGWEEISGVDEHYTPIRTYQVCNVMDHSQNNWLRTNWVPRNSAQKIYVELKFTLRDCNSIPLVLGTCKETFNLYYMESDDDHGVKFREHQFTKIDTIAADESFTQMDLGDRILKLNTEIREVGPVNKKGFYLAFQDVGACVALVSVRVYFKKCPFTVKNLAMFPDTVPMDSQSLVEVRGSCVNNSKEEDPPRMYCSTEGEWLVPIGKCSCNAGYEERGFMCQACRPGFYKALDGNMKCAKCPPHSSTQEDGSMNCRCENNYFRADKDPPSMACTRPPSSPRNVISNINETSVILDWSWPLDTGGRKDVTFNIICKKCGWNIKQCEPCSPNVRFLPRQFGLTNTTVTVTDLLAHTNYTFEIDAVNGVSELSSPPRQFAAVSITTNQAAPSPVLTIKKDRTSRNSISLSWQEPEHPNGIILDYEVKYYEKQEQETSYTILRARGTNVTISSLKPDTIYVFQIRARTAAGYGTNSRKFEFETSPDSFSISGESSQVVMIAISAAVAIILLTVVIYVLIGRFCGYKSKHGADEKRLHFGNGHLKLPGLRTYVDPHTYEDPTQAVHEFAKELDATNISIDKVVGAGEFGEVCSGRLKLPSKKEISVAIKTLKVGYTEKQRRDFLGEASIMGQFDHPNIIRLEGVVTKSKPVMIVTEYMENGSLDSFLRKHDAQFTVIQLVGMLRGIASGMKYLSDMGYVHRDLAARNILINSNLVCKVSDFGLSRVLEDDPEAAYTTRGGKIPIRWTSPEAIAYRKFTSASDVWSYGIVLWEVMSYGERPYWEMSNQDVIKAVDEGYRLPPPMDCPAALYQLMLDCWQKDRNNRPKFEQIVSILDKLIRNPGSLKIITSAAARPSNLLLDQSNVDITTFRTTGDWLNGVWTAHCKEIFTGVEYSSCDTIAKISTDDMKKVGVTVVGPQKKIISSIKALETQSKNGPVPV

[9] = biological target: Mitotic checkpoint serine/threonine-protein kinase BUB1 (Homo sapiens) (UniProt O43683)
Sequence of Mitotic checkpoint serine/threonine-protein kinase BUB1 (Homo sapiens) (O43683 whole entry, looked up): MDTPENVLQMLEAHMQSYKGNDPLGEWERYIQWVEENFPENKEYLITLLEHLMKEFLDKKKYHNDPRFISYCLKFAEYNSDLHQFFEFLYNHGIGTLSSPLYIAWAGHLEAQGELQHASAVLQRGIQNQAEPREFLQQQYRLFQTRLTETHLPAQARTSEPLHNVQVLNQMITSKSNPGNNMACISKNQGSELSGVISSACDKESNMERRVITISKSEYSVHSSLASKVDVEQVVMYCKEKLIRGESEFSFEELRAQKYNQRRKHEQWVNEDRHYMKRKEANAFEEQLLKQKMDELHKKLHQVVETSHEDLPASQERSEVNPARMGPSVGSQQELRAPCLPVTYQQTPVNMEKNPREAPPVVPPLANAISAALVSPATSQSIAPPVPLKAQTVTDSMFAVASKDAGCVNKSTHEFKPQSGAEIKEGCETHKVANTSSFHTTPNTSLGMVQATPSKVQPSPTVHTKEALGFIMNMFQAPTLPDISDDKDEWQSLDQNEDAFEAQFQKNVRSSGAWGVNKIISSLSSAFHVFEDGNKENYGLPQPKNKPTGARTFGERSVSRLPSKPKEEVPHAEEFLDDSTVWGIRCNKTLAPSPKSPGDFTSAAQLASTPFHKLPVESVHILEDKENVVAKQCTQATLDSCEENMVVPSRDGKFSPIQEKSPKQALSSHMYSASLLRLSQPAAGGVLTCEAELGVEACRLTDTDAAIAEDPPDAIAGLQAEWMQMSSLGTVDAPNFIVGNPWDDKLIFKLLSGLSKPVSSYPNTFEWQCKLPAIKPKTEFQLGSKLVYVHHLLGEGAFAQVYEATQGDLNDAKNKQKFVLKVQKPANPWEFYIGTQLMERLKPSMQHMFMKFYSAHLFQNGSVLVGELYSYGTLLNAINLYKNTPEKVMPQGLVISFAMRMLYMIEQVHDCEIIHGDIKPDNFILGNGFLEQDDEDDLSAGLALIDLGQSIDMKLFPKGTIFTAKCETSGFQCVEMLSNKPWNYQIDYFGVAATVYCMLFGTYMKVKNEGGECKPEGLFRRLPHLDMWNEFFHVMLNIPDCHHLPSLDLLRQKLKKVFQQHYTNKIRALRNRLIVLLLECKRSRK

[10] = biological target: Serine/threonine-protein kinase RIO3 (Homo sapiens) (UniProt O14730)
[11] = biological target: Calcium/calmodulin-dependent protein kinase type 1G (Homo sapiens) (UniProt Q96NX5)
[12] = biological target: T3, Serine/threonine-protein kinase Nek3 (Homo sapiens) (UniProt P51956)
T3 sequence (whole entry): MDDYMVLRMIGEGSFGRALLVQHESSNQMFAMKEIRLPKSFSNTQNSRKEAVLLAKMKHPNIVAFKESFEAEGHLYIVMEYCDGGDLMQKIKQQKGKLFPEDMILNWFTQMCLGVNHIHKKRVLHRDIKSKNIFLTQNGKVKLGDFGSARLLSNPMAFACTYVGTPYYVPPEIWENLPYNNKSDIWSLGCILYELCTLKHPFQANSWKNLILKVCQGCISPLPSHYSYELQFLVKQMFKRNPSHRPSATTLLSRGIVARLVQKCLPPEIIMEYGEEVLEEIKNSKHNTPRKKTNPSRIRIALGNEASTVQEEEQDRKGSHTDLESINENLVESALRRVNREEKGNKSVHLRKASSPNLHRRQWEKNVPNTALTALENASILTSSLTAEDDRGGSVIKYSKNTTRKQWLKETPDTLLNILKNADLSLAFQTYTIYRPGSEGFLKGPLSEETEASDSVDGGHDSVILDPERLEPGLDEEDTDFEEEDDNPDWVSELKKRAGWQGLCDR

[13] = biological target: Tyrosine-protein kinase HCK (Homo sapiens) (UniProt P08631)
[14] = biological target: Megakaryocyte-associated tyrosine-protein kinase (Homo sapiens) (UniProt P42679)
[15] = biological target: Mitogen-activated protein kinase 8 (Homo sapiens) (UniProt P45983)
Sequence of Mitogen-activated protein kinase 8 (Homo sapiens) (P45983 whole entry): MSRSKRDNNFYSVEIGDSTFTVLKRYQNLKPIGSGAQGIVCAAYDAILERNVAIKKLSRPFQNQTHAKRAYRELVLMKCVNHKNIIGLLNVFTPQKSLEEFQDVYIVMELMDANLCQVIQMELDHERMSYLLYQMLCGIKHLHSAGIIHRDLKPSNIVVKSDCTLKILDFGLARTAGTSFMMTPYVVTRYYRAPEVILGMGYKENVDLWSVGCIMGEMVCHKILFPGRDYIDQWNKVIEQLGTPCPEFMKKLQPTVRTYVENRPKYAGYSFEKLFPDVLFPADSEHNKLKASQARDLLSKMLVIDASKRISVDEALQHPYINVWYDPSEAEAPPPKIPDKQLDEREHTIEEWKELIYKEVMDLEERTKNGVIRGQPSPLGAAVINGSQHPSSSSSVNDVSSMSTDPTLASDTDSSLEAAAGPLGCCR

[16] = biological target: Serine/threonine-protein kinase PAK 4 (Homo sapiens) (UniProt O96013)
Sequence of Serine/threonine-protein kinase PAK 4 (Homo sapiens) (O96013 whole entry, looked up): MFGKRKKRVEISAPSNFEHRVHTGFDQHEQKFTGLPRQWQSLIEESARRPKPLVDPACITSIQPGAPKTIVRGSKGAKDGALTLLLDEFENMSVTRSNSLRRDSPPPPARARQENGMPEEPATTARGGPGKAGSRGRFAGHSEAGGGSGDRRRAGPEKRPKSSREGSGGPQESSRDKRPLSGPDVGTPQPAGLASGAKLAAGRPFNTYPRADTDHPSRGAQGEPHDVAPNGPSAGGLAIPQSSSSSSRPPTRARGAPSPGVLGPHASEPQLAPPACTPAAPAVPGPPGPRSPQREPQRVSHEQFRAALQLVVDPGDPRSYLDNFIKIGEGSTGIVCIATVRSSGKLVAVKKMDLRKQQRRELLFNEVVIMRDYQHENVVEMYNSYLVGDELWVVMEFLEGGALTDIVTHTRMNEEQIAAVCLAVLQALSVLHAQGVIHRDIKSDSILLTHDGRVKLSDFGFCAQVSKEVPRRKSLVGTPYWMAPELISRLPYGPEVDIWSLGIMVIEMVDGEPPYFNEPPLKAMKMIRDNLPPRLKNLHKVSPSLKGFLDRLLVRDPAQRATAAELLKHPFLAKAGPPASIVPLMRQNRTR

[17] = biological target: 3-phosphoinositide-dependent protein kinase 1 (Homo sapiens) (UniProt O15530)
Sequence of 3-phosphoinositide-dependent protein kinase 1 (Homo sapiens) (O15530 whole entry): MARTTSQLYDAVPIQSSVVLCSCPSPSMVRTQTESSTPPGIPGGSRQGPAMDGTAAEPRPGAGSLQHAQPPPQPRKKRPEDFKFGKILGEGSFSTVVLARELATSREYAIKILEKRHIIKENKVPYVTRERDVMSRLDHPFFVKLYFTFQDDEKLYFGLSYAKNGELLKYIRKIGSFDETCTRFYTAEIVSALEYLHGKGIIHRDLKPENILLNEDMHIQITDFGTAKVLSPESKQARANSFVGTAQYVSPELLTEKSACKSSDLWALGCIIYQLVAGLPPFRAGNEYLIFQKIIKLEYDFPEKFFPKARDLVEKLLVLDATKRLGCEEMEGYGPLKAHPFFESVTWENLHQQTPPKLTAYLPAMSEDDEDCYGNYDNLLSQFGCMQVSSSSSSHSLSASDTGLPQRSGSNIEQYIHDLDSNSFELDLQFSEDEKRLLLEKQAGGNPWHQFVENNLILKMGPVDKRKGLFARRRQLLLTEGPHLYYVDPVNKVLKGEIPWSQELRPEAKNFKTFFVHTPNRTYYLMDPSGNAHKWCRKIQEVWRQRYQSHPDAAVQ

Sequence of Ribosomal protein S6 kinase alpha-3 (P51812 whole entry): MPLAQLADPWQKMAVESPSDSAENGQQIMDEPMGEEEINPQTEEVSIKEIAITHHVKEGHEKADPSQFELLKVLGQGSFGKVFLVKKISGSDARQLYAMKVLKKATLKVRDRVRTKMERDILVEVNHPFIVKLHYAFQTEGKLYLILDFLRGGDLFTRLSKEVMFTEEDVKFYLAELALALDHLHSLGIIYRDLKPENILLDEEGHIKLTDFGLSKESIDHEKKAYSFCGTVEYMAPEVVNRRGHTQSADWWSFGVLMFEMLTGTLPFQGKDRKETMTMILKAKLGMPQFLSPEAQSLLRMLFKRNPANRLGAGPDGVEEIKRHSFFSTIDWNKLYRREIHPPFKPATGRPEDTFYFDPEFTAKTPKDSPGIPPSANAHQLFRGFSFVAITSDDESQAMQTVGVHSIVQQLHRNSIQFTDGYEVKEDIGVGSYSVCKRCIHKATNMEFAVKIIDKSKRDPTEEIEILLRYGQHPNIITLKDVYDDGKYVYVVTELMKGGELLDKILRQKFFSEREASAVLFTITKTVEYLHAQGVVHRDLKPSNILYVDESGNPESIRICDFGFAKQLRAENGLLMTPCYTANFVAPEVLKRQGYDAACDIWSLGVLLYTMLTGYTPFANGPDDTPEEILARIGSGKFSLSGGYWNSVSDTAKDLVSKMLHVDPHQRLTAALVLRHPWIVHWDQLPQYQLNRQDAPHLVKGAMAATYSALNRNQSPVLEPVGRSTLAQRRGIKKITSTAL

Question: Which results are given for `CC1=C(C#N)C(c2ccc3c(c2)c(NC(=O)c2ccccc2C)nn3C)C(C#N)=C(C)N1` [BAY-974]?
Answer: residual activity [1]: 94%; residual activity [2]: 63%; residual activity [3]: 100%; residual activity [4]: 75%; residual activity [5]: 84%; residual activity [6]: 88%; residual activity [7]: 88%; residual activity [8]: 99%; residual activity [9]: 74%; residual activity [10]: 87%; residual activity [11]: 99%; residual activity [12]: 94%; residual activity [13]: 66%; residual activity [14]: 79%; residual activity [15]: 88%; residual activity [16]: 100%; residual activity [17]: 77%

Question: Which residual activity [1] does the source give for `CCc1ccccc1C(=O)Nc1n[nH]c2c(C)c(F)c(C3C(C#N)=C(C)N(C)C(C)=C3C#N)cc12` [BAY-3827] here?
Answer: Its residual activity is 100%.

Question: What about the residual activity [2] of the same molecule?
Answer: The residual activity was 100%.

Question: What about the residual activity [3] of the same molecule?
Answer: Its residual activity is 100%.

Question: What about the residual activity [4] of the same molecule?
Answer: Its residual activity is 100%.

Question: What about the residual activity [5] of the same molecule?
Answer: The residual activity was 100%.

Question: And the residual activity [6]?
Answer: The residual activity was 100%.

Question: What about the residual activity [7] of the same molecule?
Answer: The residual activity was 100%.

Question: And the residual activity [8]?
Answer: Its residual activity is 100%.

Question: What about the residual activity [9] of the same molecule?
Answer: Its residual activity is 100%.

Question: And the residual activity [10]?
Answer: The residual activity was 45%.

Question: And the residual activity [11]?
Answer: The residual activity was 90%.

Question: What about the residual activity [12] of the same molecule?
Answer: Its residual activity is 100%.

Question: And the residual activity [13]?
Answer: Its residual activity is 100%.

Question: And the residual activity [14]?
Answer: Its residual activity is 100%.

Question: And the residual activity [15]?
Answer: Its residual activity is 71%.

Question: And the residual activity [16]?
Answer: Its residual activity is 100%.

Question: What about the residual activity [17] of the same molecule?
Answer: Its residual activity is 86%.

Reference: ChEMBL document CHEMBL4507319 (2021)
